Laboratory results taken from paper PMC10997755, “Discovery of a small-molecule inhibitor that traps Polθ on DNA and synergizes with PARP inhibitors” (Nature Communications, 2024).
Values joined by “and” are separate entries in the source; they are usually repeats but may differ in a detail not shown here. Identical values can stand only once. “Also recorded” adds a separate entry of the source.

Tests used:
[1] = Clonogenic assay, OLA with or without RTX-161 (Fig. 2 a; cell line not given); assay type: cell-based; conditions: vehicle, single experiments
DLD1 BRCA2 -/- cells = test: Clonogenic assay; assay type: cell-based; conditions: for average / percent suvival / replicate counts: vehicle, DLD1-BRCA2 null cells
Description: (§1) Cells were plated on six or twelve or twenty-four well plates. In six well plate, 1000 cells/ well of BRCA2 -/-, BRCA1 -/-, PALB2 mut and 500 cells/ well of wildtype pair was plated; In twelve well plate, 600 cells/ well of BRCA2 -/-, BRCA1 -/-, PALB2 mut and 400 cells/ well of wildtype pair was plated; In twenty-four well plate, 500 cells/ well of BRCA2 -/-, BRCA1 -/-, PALB2 mut and 300 cells/ well of wildtype pair was plated. For MEFs, 300 cells per well in six-well plate were seeded. The medium was replaced every 2 days until the colonies were ready for staining in 10–12 days. For staining: Medium was removed from plates, and cells were rinsed with PBS. Fixation was carried out with—Water: Ethanol: Acetic acid (5:4:1) for 30 min followed by staining of colonies with 0.5% crystal violet in Water: Ethanol (3:2) for 2 h at room temperature. The plates were rinsed with water and left for drying overnight at room temperature. Colonies were then counted and IC50 was calculated using results from 3 or more independent experiments. Response curves are shown as mean colony formation +/- S.E.M.
(§2) Data are expressed as mean ± SEM from at least 3 independent experiments with triplicates for each condition unless stated otherwise. When conducting comparison between two groups, two-tailed unpaired t-test was used. Significance was assumed at p < 0.05. Asterisks in the figures indicate significance, ^∗p < 0.05, ^∗∗p < 0.01, ^∗∗∗p < 0.001. Combenefit® software version 2.021 was used to perform synergy analyses for drug combinations between RTx-161 and PARPi. GraphPad Prism 9 software was used to calculate IC50.

DLD1 Parental cells = test: Clonogenic assay; assay type: cell-based; conditions: Olaparib 1 μM, BRCA2-WT
Description: as §1

MDA-MB-231 cells = test: Clonogenic assay; assay type: cell-based; conditions: Fig. 2f, vehicle (Rtx-161 zero)
Description: as §1, §2

Polθ-pol = biological target: T1, Polθ-pol (Homo sapiens, UniProt O75417); test: Cy5 fluorescence Polθ-pol DNA synthesis (strand displacement) IC50 assay; assay type: biochemical; conditions: 5 nM PolQ, 18 min
T1 construct: purified recombinant human Polθ-pol (comprising amino acid residues 1792–2590); made in house
T1 sequence (O75417 1792-2590): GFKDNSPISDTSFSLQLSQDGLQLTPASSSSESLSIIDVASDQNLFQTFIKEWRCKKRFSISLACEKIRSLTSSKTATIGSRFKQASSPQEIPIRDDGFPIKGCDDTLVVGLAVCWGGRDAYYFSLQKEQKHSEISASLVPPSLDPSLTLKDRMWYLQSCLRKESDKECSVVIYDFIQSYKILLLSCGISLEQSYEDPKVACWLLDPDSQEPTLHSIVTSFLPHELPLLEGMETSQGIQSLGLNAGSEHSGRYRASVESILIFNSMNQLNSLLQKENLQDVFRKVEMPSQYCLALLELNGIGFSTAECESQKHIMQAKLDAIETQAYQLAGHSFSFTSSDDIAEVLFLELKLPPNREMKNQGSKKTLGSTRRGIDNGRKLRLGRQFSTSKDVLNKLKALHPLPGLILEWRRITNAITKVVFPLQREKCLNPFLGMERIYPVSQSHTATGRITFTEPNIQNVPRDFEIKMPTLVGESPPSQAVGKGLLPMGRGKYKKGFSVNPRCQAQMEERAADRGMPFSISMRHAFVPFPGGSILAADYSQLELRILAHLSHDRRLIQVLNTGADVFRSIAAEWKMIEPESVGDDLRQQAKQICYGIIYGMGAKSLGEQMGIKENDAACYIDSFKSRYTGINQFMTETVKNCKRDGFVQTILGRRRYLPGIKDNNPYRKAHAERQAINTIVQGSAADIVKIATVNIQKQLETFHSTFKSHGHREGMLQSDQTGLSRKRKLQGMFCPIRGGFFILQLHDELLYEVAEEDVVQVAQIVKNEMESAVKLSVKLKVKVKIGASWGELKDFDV
Description: The following Cy5 fluorescence assay was used to measure the ability of compounds to inhibit Polθ-pol in vitro. The fluorescent based assay was performed as follows: 60 nM of the pre-annealed primer-template containing a 5’ Cy5 fluorophore conjugated template strand (RP486-Cy5), a downstream complementary oligo conjugated with a 3’ Iowa BlackReg Dark quencher (RP343BHQRQ) and a primer strand (RP469D) was mixed with 50 uM 2'-deoxyribonucleoside triphosphates (dNTPs), 0.1 mg/mL Bovine serum albumin (BSA), 0.01% NP-40, 10% glycerol, 1 mM dithiothreitol (DTT), 10 mM MgCl2, 25 mM TrisHCl pH 7.8 in the presence of 2.5% DMSO with or without various concentrations (7-point dilution series) of Polθ-pol small-molecule inhibitors at 37 °C in a volume of 40 μL. The reactions were initiated by the addition of 5 nM of purified recombinant human Polθ-pol (comprising amino acid residues 1792–2590). The reactions were terminated by the addition of 20 mM EDTA after 18 min, and the Cy5 fluorescence intensity was measured using a CLARIOstar (BMG Labtech) plate reader. Reactions were performed in triplicate and the % inhibition at each concentration of the respective compound of Formula I was based on the mean.

With O=C(c1cc(Cc2n[nH]c(=O)c3ccccc23)ccc1F)N1CCN(C(=O)C2CC2)CC1 [OLA] the percent suvival ([1]; OLA 0.125 nano M) was 98.3333%, the percent suvival ([1]; OLA 0.25 nano M) was 90.8333% and 74.269% and 96.7105% and the percent suvival ([1]; OLA 0.5 nano M) was 67.8363% and 93.4211% and 71.6667%. The percent suvival ([1]; OLA 1 nano M) was 43.3333% and 47.9532% and 73.6842%, the percent suvival ([1]; OLA 2 nano M) was 35% and 27.4854% and 32.2368% and the percent suvival ([1]; OLA 4 nano M) was 17.5% and 9.357% and 9.868%. The average (DLD1 BRCA2 -/- cells; OLA 3.125 nano M) was 100, the percent suvival (DLD1 BRCA2 -/- cells; OLA 3.125 nano M) was 96.463% and the replicate counts (DLD1 BRCA2 -/- cells; OLA 3.125 nano M) was 99 and 93 and 108. The average (DLD1 BRCA2 -/- cells; OLA 6.25 nano M) was 86, the percent suvival (DLD1 BRCA2 -/- cells; OLA 6.25 nano M) was 82.9582% and the replicate counts (DLD1 BRCA2 -/- cells; OLA 6.25 nano M) was 84 and 95 and 79. The average (DLD1 BRCA2 -/- cells; OLA 12.50 nano M) was 68.3333, the percent suvival (DLD1 BRCA2 -/- cells; OLA 12.50 nano M) was 65.9164% and the replicate counts (DLD1 BRCA2 -/- cells; OLA 12.50 nano M) was 64 and 72 and 69. The average (DLD1 BRCA2 -/- cells; OLA 25.00 nano M) was 45.6667, the percent suvival (DLD1 BRCA2 -/- cells; OLA 25.00 nano M) was 44.0514% and the replicate counts (DLD1 BRCA2 -/- cells; OLA 25.00 nano M) was 49 and 40 and 48. The average (DLD1 BRCA2 -/- cells; OLA 50.00 nano M) was 38, the percent suvival (DLD1 BRCA2 -/- cells; OLA 50.00 nano M) was 36.6559% and the replicate counts (DLD1 BRCA2 -/- cells; OLA 50.00 nano M) was 37 and 42 and 35. The average (DLD1 BRCA2 -/- cells; OLA 100.00 nano M) was 20.3333, the percent suvival (DLD1 BRCA2 -/- cells; OLA 100.00 nano M) was 19.6141% and the replicate counts (DLD1 BRCA2 -/- cells; OLA 100.00 nano M) was 24 and 18 and 19.

In the case of O=C(c1cc(Cc2n[nH]c(=O)c3ccccc23)ccc1F)N1CCN(C(=O)C2CC2)CC1 [Olaparib, reference compound], the Average (colonies) (DLD1 Parental cells) is reported as 102.667, the Percent survival (DLD1 Parental cells) is reported as 99.6764 and the Average (colonies) (DLD1 BRCA2 -/- cells; Olaparib 1 μM, BRCA2-NULL) is reported as 0. The Percent survival (DLD1 BRCA2 -/- cells; Olaparib 1 μM, BRCA2-NULL) was 0 and the “selective killing / synthetic lethality in BRCA2-null DLD1 cells” value (DLD1 BRCA2 -/- cells; colony survival, versus BRCA2-WT) was “selective killing; also recorded: induction of synthetic lethality”.

For Cn1ncnc1[C@H]1c2n[nH]c(=O)c3cc(F)cc(c23)N[C@@H]1c1ccc(F)cc1 [Talazoparib], the percent suvival (MDA-MB-231 cells; Talazoparib 12.5 nano M, experiment block 1 (c0-c7)) was 83.7456%, the percent suvival (MDA-MB-231 cells; Talazoparib 12.5 nano M, experiment block 2 (c8-c15)) was 90.5063% and the percent suvival (MDA-MB-231 cells; Talazoparib 12.5 nano M, experiment block 3 (c16-c23)) was 79.3478%. It also gave a percent suvival (MDA-MB-231 cells; Talazoparib 25 nano M, experiment block 1 (c0-c7)) of 72.4382%, a percent suvival (MDA-MB-231 cells; Talazoparib 25 nano M, experiment block 2 (c8-c15)) of 53.1646% and a percent suvival (MDA-MB-231 cells; Talazoparib 25 nano M, experiment block 3 (c16-c23)) of 57.0652%. For the same molecule, the percent suvival (MDA-MB-231 cells; Talazoparib 50 nano M, experiment block 1 (c0-c7)) was 24.735%, the percent suvival (MDA-MB-231 cells; Talazoparib 50 nano M, experiment block 2 (c8-c15)) was 34.1772% and the percent suvival (MDA-MB-231 cells; Talazoparib 50 nano M, experiment block 3 (c16-c23)) was 30.9783%.

With ART-558 the “raw signal, Trial 1-3” value (Polθ-pol; 0.0016 μM compound, 60 nM 469D/343-BHQRQ/486-Cy5 DNA) was 191.03 and 186.60 and 188.77, the “% Activity, Average” value (Polθ-pol; 0.0016 μM compound, 60 nM DNA) was 85.90% and the “% Activity, Trial 1-3” value (Polθ-pol; 0.0016 μM compound, 60 nM DNA) was 80.91% and 85.80% and 91.00%. For the same molecule, the “% Inhibition, Average” value (Polθ-pol; 0.0016 μM compound, 60 nM DNA) was 14.10%, the “raw signal, Average” value (Polθ-pol; 0.0016 μM compound, 60 nM DNA) was 188.80 and the “% Activity, Average” value (Polθ-pol; 0.0049 μM compound, 60 nM DNA) was 70.18%. For the same molecule, the “% Activity, Trial 1-3” value (Polθ-pol; 0.0049 μM compound, 60 nM DNA) was 67.33% and 75.35% and 67.85%, the “% Inhibition, Average” value (Polθ-pol; 0.0049 μM compound, 60 nM DNA) was 29.82% and the “% Inhibition, Trial 1-3” value (Polθ-pol; 0.0049 μM compound, 60 nM DNA) was 32.67% and 24.65% and 32.15%. The “raw signal, Average” value (Polθ-pol; 0.0049 μM compound, 60 nM DNA) was 168.11, the “raw signal, Trial 1-3” value (Polθ-pol; 0.0049 μM compound, 60 nM DNA) was 171.92 and 173.21 and 159.20 and the “% Activity, Average” value (Polθ-pol; 0.0148 μM compound, 60 nM DNA) was 44.31%. The “% Activity, Trial 1-3” value (Polθ-pol; 0.0148 μM compound, 60 nM DNA) was 42.11% and 41.00% and 49.82%, the “% Inhibition, Average” value (Polθ-pol; 0.0148 μM compound, 60 nM DNA) was 55.69% and the “% Inhibition, Trial 1-3” value (Polθ-pol; 0.0148 μM compound, 60 nM DNA) was 57.89% and 59.00% and 50.18%. The “raw signal, Average” value (Polθ-pol; 0.0148 μM compound, 60 nM DNA) was 133.93, the “raw signal, Trial 1-3” value (Polθ-pol; 0.0148 μM compound, 60 nM DNA) was 136.44 and 129.18 and 136.16 and the “% Activity, Average” value (Polθ-pol; 0.0444 μM compound, 60 nM DNA) was 20.55%. For the same molecule, the “% Activity, Trial 1-3” value (Polθ-pol; 0.0444 μM compound, 60 nM DNA) was 21.44% and 16.79% and 23.44%, the “% Inhibition, Average” value (Polθ-pol; 0.0444 μM compound, 60 nM DNA) was 79.45% and the “% Inhibition, Trial 1-3” value (Polθ-pol; 0.0444 μM compound, 60 nM DNA) was 78.56% and 83.21% and 76.56%. The “raw signal, Average” value (Polθ-pol; 0.0444 μM compound, 60 nM DNA) was 102.66, the “raw signal, Trial 1-3” value (Polθ-pol; 0.0444 μM compound, 60 nM DNA) was 107.36 and 98.15 and 102.46 and the “% Activity, Average” value (Polθ-pol; 0.1333 μM compound, 60 nM DNA) was 6.69%. For the same molecule, the “% Activity, Trial 1-3” value (Polθ-pol; 0.1333 μM compound, 60 nM DNA) was 5.64% and 7.63% and 6.80%, the “% Inhibition, Average” value (Polθ-pol; 0.1333 μM compound, 60 nM DNA) was 93.31% and the “% Inhibition, Trial 1-3” value (Polθ-pol; 0.1333 μM compound, 60 nM DNA) was 94.36% and 92.37% and 93.20%. For the same molecule, the “raw signal, Average” value (Polθ-pol; 0.1333 μM compound, 60 nM DNA) was 84.25, the “raw signal, Trial 1-3” value (Polθ-pol; 0.1333 μM compound, 60 nM DNA) was 85.13 and 86.41 and 81.22 and the “% Activity, Average” value (Polθ-pol; 0.4000 μM compound, 60 nM DNA) was 2.48%. The “% Activity, Trial 1-3” value (Polθ-pol; 0.4000 μM compound, 60 nM DNA) was 0.51% and 1.19% and 5.76%, the “% Inhibition, Average” value (Polθ-pol; 0.4000 μM compound, 60 nM DNA) was 97.52% and the “% Inhibition, Trial 1-3” value (Polθ-pol; 0.4000 μM compound, 60 nM DNA) was 99.49% and 98.81% and 94.24%. For the same molecule, the “raw signal, Average” value (Polθ-pol; 0.4000 μM compound, 60 nM DNA) was 78.65 and the “raw signal, Trial 1-3” value (Polθ-pol; 0.4000 μM compound, 60 nM DNA) was 77.91 and 78.16 and 79.89.
